The source of these data is patent US20150125402A1, “ANTIMICROBIAL AGENTS” (BEDOUKIAN RESEARCH, INC., priority 2012, published 2015).

≈ marks a conversion by molar mass, not a printed value.

Common to all, as to assay type: cell-based
Test [1] has as its system Staphylococcus aureus. In words: Minimum Inhibition Concentration (MIC) screen. The note with it: strain ATTC 6538. The protocol:
(§1) To test the compounds as antimicrobial agents, the compounds were screened for activity to inhibit bacteria, yeast and mold. The Minimum Inhibition Concentration (MIC) is determined as the lowest concentration activity to inhibit the microorganism.

The next test relates to Pseudomonas aeruginosa. In words: Minimum Inhibition Concentration (MIC) screen. The settings on record: strain ATTC 15442. The protocol:
as §1

Test [2] concerns Staphylococcus epidermidis. The experiment in a line: Minimum Inhibition Concentration (MIC) screen. The settings on record: strain ATTC 12228. The protocol: as §1
In test [3] the test system is Escherichia coli. In words: Minimum Inhibition Concentration (MIC) screen. The note with it: strain ATTC 10536. The protocol: as §1
A further test relates to Candida albicans. In words: Minimum Inhibition Concentration (MIC) screen. The note with it: strain ATTC 10231. The protocol: as §1
A further test concerns Aspergillus brasiliensis. In words: Minimum Inhibition Concentration (MIC) screen. The settings on record: strain ATTC 16404. The protocol:
as §1

Test [4] concerns Staphylococcus aureus. The experiment in a line: Bactericidal activity in solution (Activity % Reduction). The note with it: 2000 ppm in water at ambient temperature. The protocol:
(§2) In a second assay, compounds of this invention were screened for activity to kill bacteria in solution over a short period of time. Bactericidal activity is expressed as Activity % Reduction. All samples were tested in water at ambient temperature and at a concentration of 2000 ppm.

The subject of test [5] is Escherichia coli. The description is as above. The note with it: 2000 ppm in water at ambient temperature. The protocol: as §2

On to `CCCCC1CC(=O)C=C(C)C1` (stereo not shown) [3-Methyl-5-Butyl-2-Cyclohexenone, 3-methyl-5-butyl-2-cyclohexenone], for which the MIC is 500 µg/mL (≈ 3.01 mM) in the test on Staphylococcus aureus [1]; over 1000 µg/mL with Pseudomonas aeruginosa; 1000 µg/mL (≈ 6.01 mM) in test [2]; 500 µg/mL (≈ 3.01 mM) in the test with Escherichia coli [3]; 500 µg/mL (≈ 3.01 mM) in the test with Candida albicans; 250 µg/mL (≈ 1.5 mM) against Aspergillus brasiliensis. In addition, the inhibition at 2000 ppm was 33.9% in the test on Staphylococcus aureus [4] (5 min), 33.2% with Staphylococcus aureus [4] (1 hour), 83.8% in the test with Escherichia coli [5] (5 min) and 100% with Escherichia coli [5] (1 hour).
As for `CCCCCCCC1CC(=O)C=C(C)C1` (stereo not shown) [3-Methyl-5-Heptyl-2-Cyclohexenone, 3-methyl-5-heptyl-2-cyclohexenone], the MIC against Staphylococcus aureus [1] was 15.6 µg/mL (≈ 0.0749 mM); against Pseudomonas aeruginosa, over 1000 µg/mL; in test [2] it was 31.2 µg/mL (≈ 0.15 mM); against Escherichia coli [3], over 1000 µg/mL; against Candida albicans, over 1000 µg/mL; in the test on Aspergillus brasiliensis, over 1000 µg/mL. The inhibition at 2000 ppm was determined as 37.6% with Staphylococcus aureus [4] (5 min), 24.1% in the test with Staphylococcus aureus [4] (1 hour), 13.9% with Escherichia coli [5] (5 min) and 25% in the test with Escherichia coli [5] (1 hour).
As for `CCCC1CC(=O)C=C(C)C1` (stereo not shown) [3-Methyl-5-Propyl-2-Cyclohexenone, 3-methyl-5-propyl-2-cyclohexenone], the MIC is 1000 µg/mL (≈ 6.57 mM) against Staphylococcus aureus [1]; over 1000 µg/mL with Pseudomonas aeruginosa; over 1000 µg/mL in test [2]; 1000 µg/mL (≈ 6.57 mM) against Escherichia coli [3]; 1000 µg/mL (≈ 6.57 mM) in the test on Candida albicans; 500 µg/mL (≈ 3.28 mM) against Aspergillus brasiliensis. The inhibition at 2000 ppm in the test on Staphylococcus aureus [4] (5 min) was found to be 29.2%; with Staphylococcus aureus [4] (1 hour), 33.9%; in the test on Escherichia coli [5] (5 min), 69.5%; in the test on Escherichia coli [5] (1 hour), 99%.
Take `CCCCC1CC(C)=CC(O)C1` (stereo not shown) [3-Methyl-5-Butyl-2-Cyclohexenol, 3-methyl-5-butyl-2-cyclohexenol]: the minimal inhibitory concentration (MIC) against Staphylococcus aureus [1] is 125 µg/mL (≈ 0.743 mM); against Pseudomonas aeruginosa, over 1000 µg/mL; in test [2] it was 125 µg/mL (≈ 0.743 mM); in the test with Escherichia coli [3], over 1000 µg/mL; with Candida albicans, 125 µg/mL (≈ 0.743 mM); against Aspergillus brasiliensis, 250 µg/mL (≈ 1.49 mM). In addition, the inhibition at 2000 ppm stood at 28.4% in the test on Staphylococcus aureus [4] (5 min), 39% in the test with Staphylococcus aureus [4] (1 hour), 34.7% in the test on Escherichia coli [5] (5 min) and 88.5% in the test with Escherichia coli [5] (1 hour).
